# In publication PMC11345830, “Exploration of Hydrazide-Based HDAC8 PROTACs for the Treatment of Hematological Malignancies and Solid Tumors” (Journal of Medicinal Chemistry, 2024):
# Experiments:
# Assay type in all cases: cell-based
# [1] = biological target: T1, HDAC4 (Homo sapiens, UniProt P56524); assay: HDAC4 level in Jurkat cells, Western blot; details: 6 h
# T1 construct: endogenous in cells; host or cells: Jurkat
# [2] = biological target: T2, HDAC6 (Homo sapiens, UniProt Q9UBN7); assay: HDAC6 level in Jurkat cells, Western blot; parameters: endogenous in cells; host or cells: Jurkat; details: 6 h
# T2 sequence (Q9UBN7 1-1215): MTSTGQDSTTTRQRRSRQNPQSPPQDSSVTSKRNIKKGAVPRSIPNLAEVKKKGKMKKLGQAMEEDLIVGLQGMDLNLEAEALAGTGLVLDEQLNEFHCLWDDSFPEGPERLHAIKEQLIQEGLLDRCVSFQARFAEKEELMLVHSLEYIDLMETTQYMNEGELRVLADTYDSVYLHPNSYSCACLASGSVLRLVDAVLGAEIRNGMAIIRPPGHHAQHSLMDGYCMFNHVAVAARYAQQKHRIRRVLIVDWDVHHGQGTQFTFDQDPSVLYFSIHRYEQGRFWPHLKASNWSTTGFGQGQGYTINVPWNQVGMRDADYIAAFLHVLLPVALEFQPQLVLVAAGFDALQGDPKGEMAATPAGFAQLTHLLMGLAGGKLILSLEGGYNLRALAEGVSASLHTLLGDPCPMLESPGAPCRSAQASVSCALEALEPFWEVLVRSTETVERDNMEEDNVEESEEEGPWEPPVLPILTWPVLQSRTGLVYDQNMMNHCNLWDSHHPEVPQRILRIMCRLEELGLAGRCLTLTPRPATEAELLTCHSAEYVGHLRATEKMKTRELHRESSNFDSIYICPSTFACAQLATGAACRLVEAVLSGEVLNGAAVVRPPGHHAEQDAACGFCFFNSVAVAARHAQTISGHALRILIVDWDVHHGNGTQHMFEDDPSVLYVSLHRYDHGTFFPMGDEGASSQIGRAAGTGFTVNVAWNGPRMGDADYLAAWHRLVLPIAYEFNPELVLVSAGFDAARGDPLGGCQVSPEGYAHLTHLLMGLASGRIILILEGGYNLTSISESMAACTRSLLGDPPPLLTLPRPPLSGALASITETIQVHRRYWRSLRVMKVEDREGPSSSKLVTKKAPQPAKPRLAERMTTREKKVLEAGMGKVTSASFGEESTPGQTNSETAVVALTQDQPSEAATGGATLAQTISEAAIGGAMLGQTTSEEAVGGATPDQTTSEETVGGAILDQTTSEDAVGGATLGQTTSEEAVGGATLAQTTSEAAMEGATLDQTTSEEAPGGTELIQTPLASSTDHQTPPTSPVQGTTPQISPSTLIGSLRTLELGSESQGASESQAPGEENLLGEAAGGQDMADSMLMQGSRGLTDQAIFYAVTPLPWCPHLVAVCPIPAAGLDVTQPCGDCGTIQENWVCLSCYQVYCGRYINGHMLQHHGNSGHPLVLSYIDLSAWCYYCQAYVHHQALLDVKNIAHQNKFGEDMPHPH
# [3] = biological target: T3, GSPT1 (Homo sapiens, UniProt P15170); assay: GSPT1 level in Jurkat cells, Western blot; details: 6 h
# T3 construct: endogenous in cells; host or cells: Jurkat
# T3 sequence (P15170 whole entry): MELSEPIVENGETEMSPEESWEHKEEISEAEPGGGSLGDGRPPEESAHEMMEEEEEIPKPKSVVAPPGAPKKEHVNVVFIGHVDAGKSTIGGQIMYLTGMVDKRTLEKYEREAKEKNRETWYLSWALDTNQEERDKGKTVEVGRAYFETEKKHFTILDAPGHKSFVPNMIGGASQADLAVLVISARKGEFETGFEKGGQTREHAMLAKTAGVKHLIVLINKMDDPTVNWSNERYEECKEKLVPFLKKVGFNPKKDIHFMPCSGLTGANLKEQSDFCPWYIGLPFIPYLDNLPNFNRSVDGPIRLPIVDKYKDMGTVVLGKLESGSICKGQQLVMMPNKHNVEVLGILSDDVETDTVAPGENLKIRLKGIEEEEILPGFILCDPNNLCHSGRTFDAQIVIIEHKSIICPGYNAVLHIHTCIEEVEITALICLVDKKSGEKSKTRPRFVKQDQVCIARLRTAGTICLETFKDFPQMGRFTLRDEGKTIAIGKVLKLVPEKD
# [4] = tested on: Jurkat cells; assay: Lipid peroxidation detection (BODIPY 581/591 C11), Jurkat; details: 10 μM, 24 h
# Description: (§1) Jurkat cells (5 × 10^5), HCT116 cells (3 × 10^5) and THP-1 cells (5 × 10^5) were seeded on 6-well plates. The next day, cells were treated with indicated concentrations of compounds for 24 or 48 h. Then, cells were stained with 1.3 μM of BODIPY 581/591 C11 (Invitrogen, D3861) for another 1 h at 37 °C. Later, cells were harvested and washed three times with ice-cold PBS, followed by resuspended in FACS buffer (1% BSA in PBS). Lipid peroxidation was determined by NovoCyte Quanteon Flow Cytometer (Agilent Technologies, CA, USA).
# [5] = tested on: Jurkat cells; assay: Cell cycle analysis, Jurkat; details: 48 h, control group 43.5%
# Description: (§2) Jurkat cells (5 × 10^5) and HCT116 cells (3 × 10^5) were seeded on 6-well plates. The next day, cells were treated with indicated concentrations of compounds for 48 h. Cells were harvested after incubation, washed twice in cold PBS, centrifuged, and stained with a solution containing 20 μg/mL of Propidium iodide (PI) and 0.1% (v/v) Triton-X100 for 15 min at room temperature, followed by detection with NovoCyte Quanteon Flow Cytometer (Agilent Technologies, CA, USA).
# [6] = tested on: acetyl-histone H3 (Ac-HH3); assay: Ac-HH3 level in Jurkat cells, Western blot; details: 6 h
# [7] = tested on: HCT116 cells; assay: Cell cycle analysis, HCT116; details: 48 h, control group 23.0%
# Description: as §2
# [8] = tested on: acetyl-SMC3 (Ac-SMC3); assay: Ac-SMC3 level in HCT116 cells, Western blot; details: 6 h
# [9] = tested on: HEL cells; assay: Cell viability MTS assay, HEL; details: ratio of IC50 values
# Description: MTS assay was used to measure the cell viability. For single treatment, Jurkat, THP-1 and HEL (8000 cells/well), HCT116 and A549 (2000 cells/well) were seeded in 96-well plates in 100 μL complete medium. After overnight incubation, 50 μL of media containing various concentrations of compounds or the vehicle were added to each well. For cotreatment, cells were seeded in 96-well plates in 50 μL complete medium. After overnight incubation, 50 μL of Z-VAD-FMK, Nec-1, Fer-1, CQ, and other indicated compounds were added to each well. One hour later, 50 μL of media containing various concentrations of compounds were added to each well. After 72 h of treatment, 20 μL of CellTiter 96 AQueous One Solution reagent (Promega, Madison, USA) was added to each well according to manufacturer’s protocol. Plates were incubated at 37 °C for 1–2 h. The absorbance was determined at a wavelength of 490 nm using a Synergy H1 plate reader (Biotek, Winooski, VT, USA).
# [10] = tested on: HCT116 cells; assay: Lipid peroxidation detection (BODIPY 581/591 C11), HCT116; details: 24 h, low micromolar concentrations
# Description: as §1
# [11] = tested on: Jurkat cells; assay: Apoptosis assay (Annexin V-FITC/PI flow cytometry), Jurkat; details: 24 and 48 h
# Description: The cell apoptosis assay was performed using eBioscience Annexin V-FITC/PI Apoptosis Detection Kit (Thermo Fisher Scientific, Carlsbad, CA, USA). Jurkat cells (5 × 10^5) and HCT116 cells (3 × 10^5) were treated with different concentrations of test compounds for 24 or 48 h. Cells were harvested after incubation, washed twice in cold PBS, centrifuged, and resuspended in 1X annexin-binding buffer. According to the manufacturer’s instructions, cells were incubated with Annexin V and Propidium iodide (PI) sequentially. All samples were analyzed by NovoCyte Quanteon Flow Cytometer (Agilent Technologies, CA, USA).
# T1 sequence (P56524 whole entry): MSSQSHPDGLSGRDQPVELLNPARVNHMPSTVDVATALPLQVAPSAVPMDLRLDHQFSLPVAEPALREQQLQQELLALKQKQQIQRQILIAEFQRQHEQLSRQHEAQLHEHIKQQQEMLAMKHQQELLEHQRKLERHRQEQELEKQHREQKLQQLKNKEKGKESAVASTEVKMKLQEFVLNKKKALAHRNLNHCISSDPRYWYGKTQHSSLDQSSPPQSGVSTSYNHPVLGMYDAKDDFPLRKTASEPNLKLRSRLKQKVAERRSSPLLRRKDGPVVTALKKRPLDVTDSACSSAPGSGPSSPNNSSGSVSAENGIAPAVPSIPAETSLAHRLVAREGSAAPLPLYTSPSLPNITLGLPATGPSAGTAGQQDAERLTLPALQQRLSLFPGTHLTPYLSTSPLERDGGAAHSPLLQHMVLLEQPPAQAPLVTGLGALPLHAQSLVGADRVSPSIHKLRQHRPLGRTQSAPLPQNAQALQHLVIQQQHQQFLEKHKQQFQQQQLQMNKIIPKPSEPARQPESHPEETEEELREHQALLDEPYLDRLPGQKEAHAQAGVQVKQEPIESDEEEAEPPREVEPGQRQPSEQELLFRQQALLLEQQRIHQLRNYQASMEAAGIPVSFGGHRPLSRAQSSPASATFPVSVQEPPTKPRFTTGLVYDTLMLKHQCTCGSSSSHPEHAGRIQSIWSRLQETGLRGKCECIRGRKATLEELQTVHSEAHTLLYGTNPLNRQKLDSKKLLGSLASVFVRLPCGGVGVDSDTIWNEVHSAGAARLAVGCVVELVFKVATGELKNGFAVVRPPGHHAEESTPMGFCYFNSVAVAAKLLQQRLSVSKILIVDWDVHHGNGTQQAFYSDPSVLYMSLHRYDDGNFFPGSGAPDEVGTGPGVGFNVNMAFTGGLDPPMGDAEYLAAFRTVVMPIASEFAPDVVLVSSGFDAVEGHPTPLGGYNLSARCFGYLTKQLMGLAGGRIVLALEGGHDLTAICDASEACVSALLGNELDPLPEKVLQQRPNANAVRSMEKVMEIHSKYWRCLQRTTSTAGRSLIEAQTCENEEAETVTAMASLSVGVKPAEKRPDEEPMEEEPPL
smiles,measurement,setting,value
"CCCCCCNNC(=O)c1ccc(CNC(=O)CN2CCC(c3ccc(NC4CCC(=O)NC4=O)cc3)CC2)cc1 (centres unmarked) [Z16, 2-(4-(4-((2,6-Dioxopiperidin-3-yl)amino)phenyl)piperidin-1-yl)-N-(4-(2-hexylhydrazine-1-carbonyl)benzyl)acetamide]",HDAC4 degradation (in words),[1],no obvious
same,HDAC6 degradation (in words),[2],no obvious
same,intracellular level of GSPT1 (in words),[3],did not significantly affect
same,lipid peroxidation induced,[4],over 40%
same,proportion of cells at G0/G1 phase,[5]; 0.13 μM,48.4%
same,proportion of cells at G0/G1 phase,[5]; 0.37 μM,52.2%
same,proportion of cells at G0/G1 phase,[5]; 1.1 μM,61%
same,proportion of cells at G0/G1 phase,[5]; 3.3 μM,68.2%
same,level of Ac-HH3 at 1 μM (in words),[6],significantly increase
same,proportion of cells at G2/M phase,[7]; 0.13 μM,24.1%
same,proportion of cells at G2/M phase,[7]; 0.37 μM,26.4%
same,proportion of cells at G2/M phase,[7]; 1.1 μM,26.2%
same,proportion of cells at G2/M phase,[7]; 3.3 μM,38.8%
same,concentration at which increased acetylation of SMC3 started,[8],40 nM
same,less potent than SAHA against HEL cells,[9],about 10 fold
same,lipid peroxidation (in words),[10],induced lipid peroxidation in a dose-dependent manner
same,induction of apoptosis (in words),[11],neither Z16 nor SAHA could effectively induce apoptosis
